Test results from patent US20230263826A1, “Compositions and Methods for Treatment and Prevention of Type 1 Diabetes” (The UAB Research Foundation, priority 2021, published 2023).

Target: T1, iPLA2β (Mus musculus, UniProt P97819)
T1 construct: from tissue; host or cells: whole animal: female NOD mice (wild-type Pla2g6), urine collected for PGE2 metabolites
T1 sequence (P97819 1-807): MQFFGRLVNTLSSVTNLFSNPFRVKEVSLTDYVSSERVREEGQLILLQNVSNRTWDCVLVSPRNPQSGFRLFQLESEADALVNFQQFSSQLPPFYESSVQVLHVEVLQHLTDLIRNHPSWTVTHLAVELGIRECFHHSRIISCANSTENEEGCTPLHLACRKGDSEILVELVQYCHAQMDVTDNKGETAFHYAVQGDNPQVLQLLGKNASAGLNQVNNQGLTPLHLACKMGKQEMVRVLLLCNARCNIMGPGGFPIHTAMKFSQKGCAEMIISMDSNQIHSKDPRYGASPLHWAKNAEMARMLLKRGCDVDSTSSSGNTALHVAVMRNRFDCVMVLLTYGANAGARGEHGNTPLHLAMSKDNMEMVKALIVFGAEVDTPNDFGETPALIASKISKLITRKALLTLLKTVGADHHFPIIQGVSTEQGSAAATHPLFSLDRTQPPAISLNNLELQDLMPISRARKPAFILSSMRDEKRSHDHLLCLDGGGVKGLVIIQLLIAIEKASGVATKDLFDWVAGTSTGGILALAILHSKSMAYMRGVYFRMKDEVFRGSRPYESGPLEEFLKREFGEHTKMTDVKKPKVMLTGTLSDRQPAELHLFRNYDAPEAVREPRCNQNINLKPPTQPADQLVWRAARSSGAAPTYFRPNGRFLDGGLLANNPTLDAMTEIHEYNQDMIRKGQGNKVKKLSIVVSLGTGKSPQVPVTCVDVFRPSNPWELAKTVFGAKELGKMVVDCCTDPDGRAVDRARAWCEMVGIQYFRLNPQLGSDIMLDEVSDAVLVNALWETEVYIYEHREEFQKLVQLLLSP
Assay: Urinary PGE2 metabolites (PGEM), reflecting in vivo inhibition of iPLA2β activity
Settings: 8-week regimen group; 18 weeks of age
Experimental: FIGS. 1A-1M show the effects of temporal FKGK18 regimen on T1D incidence and islet phenotype, wherein female NOD mice were administered FKGK18 (20 mg/kg, 3 × weekly) or vehicle (PBS-T) starting at 4 or 8 weeks of age. FIGS. 1A and 1B show diabetes incidence; blood glucose was monitored weekly in the 4-week (FIG. 1A; n = 17 and 15 for PBS-T and FKGK18 groups, respectively) and 8-week (FIG. 1B; n = 15 each in the PBS-T and FKGK18 groups) regimen groups for up to 30 weeks. Two consecutive readings of ≥ 275 mg/dL were recorded as onset of T1D (^†P < 0.05). FIGS. 1C-1F show glucose tolerance test (GTT) results, wherein overnight fasted mice were administered glucose (2 g/kg, i.p.), glucose levels in blood from tail vein were monitored over a 2-hour period, and AUC were generated. […] FIGS. 1H and 1I show β Cell mass (PBS-T, n = 15; FKGK18, n = 14) (FIG. 1H) and circulating insulin (n = 15 in each group) (FIG. 1I) were determined at sacrifice (PBS-T, 14-30 weeks of age; FKGK18, 16-36 weeks of age). FIGS. 1J and 1K show islet infiltration; paraffin sections (10 µm) of pancreas were prepared and stained with H&E. Percent infiltration for each islet was calculated as the value of noninfiltrated area subtracted from total islet area (% infiltrate = 100 × [(total area - noninfiltrated area)/(total area)]) using ImageJ software. […]

urinary PGE2 metabolites (PGEM) relative to vehicle-treated mice: reduced
Compound: O=C(CCCCc1ccc2ccccc2c1)C(F)(F)F [FKGK18]
